Patent US6455551B1, “Use of 1-hydroxy-2-pyridones for treating mucosa diseases which are difficult to treat” (Aventis Pharma Deutschland GmbH, priority 1996, dated 2002)
Values after ≈ are worked out from the molar mass of the structure shown. Read-outs that look alike come from different tables or passages of the source.

What was measured:
Type in all cases: cell-based
Candida krusei = assay: Microtiter dilution MIC test in RPMI 1640 medium, Candida krusei strains; details: Pichia kudriavzevii, 48 h, read-out: Minimum inhibitory concentration (MIC)
Experimental: (§1) Fluconazole-resistant strains of Candida albicans are isolated from patients who have been treated, for example, with fluconazole for more than one year. For this purpose, samples are taken from the patients' mouths and applied, undiluted or diluted 1:100, to an RPMI 1640 agar (Gibco/BRL, Life Technologies GmbH, D-76339 Eggenstein) which contains about 1.0 μg/ml fluconazole. Resistant Candida albicans strains are isolated, further purified on agar and stored isolated in peptone/dextrose slant agar tubes.
(§2) The activity of Compound 1 and fluconazole is determined by the microtiter dilution technique in RPMI 1640 medium. The growth medium RPMI 1640 buffered with 0.165 M morpholinopropanesulfonic acid pH 7.0 is introduced into 96-well microtiter plates. Serial dilutions by a factor of 2 are prepared for Compound 1 and fluconazole to result in final concentrations of 256 to 0.002 μg/ml of Compound 1 and fluconazole. The microtiter plates prepared in this way are incubated with the Candida strains to be tested. For comparison purposes, the two Candida albicans strains ATCC 90028 and 90029 which are not resistant to fluconazole are included in the test. The initial cell count is 1-5 ×10^3 colony-forming units per ml of growth medium. The microtiter plates are incubated at 35° C. for 48 hours. The minimum inhibitory concentration is determined by photometry at 510 nm.

Entamoeba histolytica = assay: In vitro activity on protozoa, Entamoeba histolytica
Excerpt: (§3) In vitro activity of the Compound 1 on protozoa

Trichomonas vaginalis = assay: In vitro activity on protozoa, Trichomonas vaginalis
Excerpt: as §3

Candida guillermondii = assay: Microtiter dilution MIC test in RPMI 1640 medium, Candida guillermondii strain; details: Candida guillermondii B47; 35° C., 48 hours; read-out: Minimum inhibitory concentration (MIC)
Experimental: as §1, §2

Candida glabrata = assay: Microtiter dilution MIC test in RPMI 1640 medium, Candida glabrata strains; details: Nakaseomyces glabratus, 48 h, read-out: Minimum inhibitory concentration (MIC)
Experimental: as §2

Candida albicans = assay: Microtiter dilution MIC test in RPMI 1640 medium, Candida albicans strains; details: read-out: Minimum inhibitory concentration (MIC)
Experimental: as §1, §2

[1] = 48 h, Candida albicans 94/3, 35° C.
[2] = 48 h, Candida albicans 94/14, 35° C.
[3] = 48 h, Candida albicans 94/57, 35° C.
[4] = 48 h, Candida albicans 94/62, 35° C.
[5] = 48 h, Candida albicans 94/90, 35° C.
[6] = 48 h, Candida albicans 94/118, 35° C.
[7] = 48 h, Candida albicans 94/134, 35° C.
[8] = 48 h, Candida albicans 94/138, 35° C.
[9] = 48 h, Candida albicans 94/222, 35° C.
[10] = 48 h, Candida albicans 94/231, 35° C.
[11] = 48 h, Candida albicans B6, 35° C.
[12] = 48 h, Candida albicans B70, 35° C.
[13] = 48 h, Candida albicans B75, 35° C.
[14] = ATCC90028, 48 h, Candida albicans ATCC 90028 (not resistant to fluconazole), 35° C.
[15] = ATCC90029, 48 h, Candida albicans ATCC 90029 (not resistant to fluconazole), 35° C.

SMILES	MIC (Candida krusei; Candida krusei B1, 35° C.)	MIC (Candida krusei; Candida krusei B4, 35° C.)	MIC (Candida guillermondii)	MIC (Candida glabrata; Candida glabrata B12, 35° C.)	MIC (Candida glabrata; Candida glabrata B14, 35° C.)	MIC (Candida glabrata; Candida glabrata B18, 35° C.)	MIC (Candida glabrata; Candida glabrata B21, 35° C.)	MIC (Candida glabrata; Candida glabrata B35, 35° C.)	MIC (Candida glabrata; Candida glabrata B37, 35° C.)	MIC (Candida glabrata; Candida glabrata B38, 35° C.)	MIC (Candida glabrata; Candida glabrata B39, 35° C.)	MIC (Candida glabrata; Candida glabrata B40, 35° C.)	MIC (Candida glabrata; Candida glabrata B50, 35° C.)	MIC (Candida glabrata; Candida glabrata B51, 35° C.)	MIC (Candida albicans; [1])	MIC (Candida albicans; [2])	MIC (Candida albicans; [3])	MIC (Candida albicans; [4])	MIC (Candida albicans; [5])	MIC (Candida albicans; [6])	other results
Cc1cc(COc2ccc(Oc3ccc(Cl)cc3)cc2)n(O)c(=O)c1 [Compound 1, 6-[4-(4-chlorophenoxy)phenoxymethyl]-1-hydroxy4-methyl-2(1H)-pyridone]	0.5 µg/mL (≈ 1.4 µM)	1 µg/mL (≈ 2.79 µM)	1 µg/mL (≈ 2.79 µM)	0.5 µg/mL (≈ 1.4 µM)	0.5 µg/mL (≈ 1.4 µM)	0.5 µg/mL (≈ 1.4 µM)	1 µg/mL (≈ 2.79 µM)	1 µg/mL (≈ 2.79 µM)	1 µg/mL (≈ 2.79 µM)	1 µg/mL (≈ 2.79 µM)	0.5 µg/mL (≈ 1.4 µM)	1 µg/mL (≈ 2.79 µM)	0.5 µg/mL (≈ 1.4 µM)	0.5 µg/mL (≈ 1.4 µM)	2 µg/mL (≈ 5.59 µM)	2 µg/mL (≈ 5.59 µM)	1 µg/mL (≈ 2.79 µM)	1 µg/mL (≈ 2.79 µM)	1 µg/mL (≈ 2.79 µM)	2 µg/mL (≈ 5.59 µM)	MIC (Entamoeba histolytica; 3 of n = 4 strains investigated): 62.5 µg/mL (≈ 175 µM); MIC (Entamoeba histolytica; remaining strain of n = 4 strains investigated (count not given)): 31.2 µg/mL (≈ 87.2 µM); MIC (Trichomonas vaginalis; 2 of n = 5 strains investigated): 125 µg/mL (≈ 349 µM); MIC (Trichomonas vaginalis; 3 of n = 5 strains investigated): 31.2 µg/mL (≈ 87.2 µM); MIC (Candida albicans; [7]): 1 µg/mL (≈ 2.79 µM); MIC (Candida albicans; [8]): 1 µg/mL (≈ 2.79 µM); MIC (Candida albicans; [9]): 1 µg/mL (≈ 2.79 µM); MIC (Candida albicans; [10]): 1 µg/mL (≈ 2.79 µM); MIC (Candida albicans; [11]): 1 µg/mL (≈ 2.79 µM); MIC (Candida albicans; [12]): 1 µg/mL (≈ 2.79 µM); MIC (Candida albicans; [13]): 1 µg/mL (≈ 2.79 µM); MIC (Candida albicans; [14]): 1 µg/mL (≈ 2.79 µM); MIC (Candida albicans; [15]): 0.5 µg/mL (≈ 1.4 µM)
OC(Cn1cncn1)(Cn1cncn1)c1ccc(F)cc1F [Fluconazole, fluconazole, reference compound]	32 µg/mL (≈ 104 µM)	16 µg/mL (≈ 52.2 µM)	4 µg/mL (≈ 13.1 µM)	4 µg/mL (≈ 13.1 µM)	2 µg/mL (≈ 6.53 µM)	8 µg/mL (≈ 26.1 µM)	8 µg/mL (≈ 26.1 µM)	8 µg/mL (≈ 26.1 µM)	16 µg/mL (≈ 52.2 µM)	16 µg/mL (≈ 52.2 µM)	8 µg/mL (≈ 26.1 µM)	16 µg/mL (≈ 52.2 µM)	16 µg/mL (≈ 52.2 µM)	32 µg/mL (≈ 104 µM)	32 µg/mL (≈ 104 µM)	32 µg/mL (≈ 104 µM)	> 256 µg/mL	> 256 µg/mL	> 256 µg/mL	> 256 µg/mL	MIC (Candida albicans; [7]): > 256 µg/mL; MIC (Candida albicans; [8]): > 256 µg/mL; MIC (Candida albicans; [9]): > 256 µg/mL; MIC (Candida albicans; [10]): > 256 µg/mL; MIC (Candida albicans; [11]): 1 µg/mL (≈ 3.27 µM); MIC (Candida albicans; [12]): > 256 µg/mL; MIC (Candida albicans; [13]): 2 µg/mL (≈ 6.53 µM); MIC (Candida albicans; [14]): 0.5 µg/mL (≈ 1.63 µM); MIC (Candida albicans; [15]): 1 µg/mL (≈ 3.27 µM)
